Reference: ChEMBL document CHEMBL1201862, “PubChem BioAssay data set” (2004)
Active and inactive are the calls of the source.

Key:
[1] = molecular target: Cytochrome P450 3A4 (Homo sapiens, UniProt P08684);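 further: CYP3A4 tested as one member of a cytochrome P450 panel screen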
[2] = molecular target: Cytochrome P450 2C9 (Homo sapiens, UniProt P11712)
[3] = molecular target: T1, Heat shock factor protein 1 (Mus musculus, UniProt P38532); assay: enhancement of HSF1-driven luciferase signal – cell-based, NIH3T3, luminescence, dose retest, confirmation (AID 435004); type: functional;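 further: stress induced by proteasome inhibitor MG132 added 30 min after compound; luciferase reporter driven by HSF1 response element in NIH3T3 cells; actives raise luminescence as potentiators of the MG132 stress response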
T1 sequence (P38532 whole entry): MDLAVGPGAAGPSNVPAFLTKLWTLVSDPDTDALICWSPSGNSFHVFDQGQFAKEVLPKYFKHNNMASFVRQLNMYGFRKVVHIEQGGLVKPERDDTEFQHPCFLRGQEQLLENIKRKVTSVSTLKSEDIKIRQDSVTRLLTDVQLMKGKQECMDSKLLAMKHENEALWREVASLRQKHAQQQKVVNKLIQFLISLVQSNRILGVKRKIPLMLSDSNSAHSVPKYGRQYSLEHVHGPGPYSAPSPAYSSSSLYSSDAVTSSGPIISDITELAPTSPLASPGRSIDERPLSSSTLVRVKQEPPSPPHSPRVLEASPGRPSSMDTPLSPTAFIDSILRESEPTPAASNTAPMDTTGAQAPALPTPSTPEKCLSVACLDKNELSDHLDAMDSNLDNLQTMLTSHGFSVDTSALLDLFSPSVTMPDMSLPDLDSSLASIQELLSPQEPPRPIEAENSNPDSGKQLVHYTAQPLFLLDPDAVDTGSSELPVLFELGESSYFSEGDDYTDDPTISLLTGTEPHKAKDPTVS

[4] = molecular target: T2, RNA-binding protein pos-1 (Caenorhabditis elegans, UniProt G5EF15); assay: disruptors of C. elegans POS-1 RNA interaction – biochemical, fluorescence polarization, dose response (AID 1964);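 further: purified POS-1 fused to maltose binding protein made in E. coli; potency of compounds blocking POS-1 binding to fluorescent RNA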
T2 sequence (G5EF15 whole entry): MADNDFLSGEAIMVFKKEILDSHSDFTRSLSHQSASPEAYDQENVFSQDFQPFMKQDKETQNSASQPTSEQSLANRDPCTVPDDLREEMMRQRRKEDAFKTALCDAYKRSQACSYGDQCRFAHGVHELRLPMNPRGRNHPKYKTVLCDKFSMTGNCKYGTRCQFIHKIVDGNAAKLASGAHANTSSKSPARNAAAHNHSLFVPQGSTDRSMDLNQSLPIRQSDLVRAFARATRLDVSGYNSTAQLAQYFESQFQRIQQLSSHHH

[5] = test system: Streptococcus sp. 'group A'; assay: Streptococcus pyogenes SK(-)GAS viability under kanamycin – luminescence, BacTiterGlo, confirmation, counter-screen for streptokinase expression inhibitor project, dose response (AID 1900); type: functional, organism-based
[6] = molecular target: T3, Streptokinase A (Streptococcus pyogenes serotype M1, UniProt P10520); assay: viability-normalized secreted streptokinase activity reduction – plasminogen activation absorbance, OD405, dose response (AID 1914); type: functional, Streptococcus pyogenes M1 GAS;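 further: secreted streptokinase activity via plasminogen activation per viability signal from cell pellet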
T3 sequence (P10520 whole entry): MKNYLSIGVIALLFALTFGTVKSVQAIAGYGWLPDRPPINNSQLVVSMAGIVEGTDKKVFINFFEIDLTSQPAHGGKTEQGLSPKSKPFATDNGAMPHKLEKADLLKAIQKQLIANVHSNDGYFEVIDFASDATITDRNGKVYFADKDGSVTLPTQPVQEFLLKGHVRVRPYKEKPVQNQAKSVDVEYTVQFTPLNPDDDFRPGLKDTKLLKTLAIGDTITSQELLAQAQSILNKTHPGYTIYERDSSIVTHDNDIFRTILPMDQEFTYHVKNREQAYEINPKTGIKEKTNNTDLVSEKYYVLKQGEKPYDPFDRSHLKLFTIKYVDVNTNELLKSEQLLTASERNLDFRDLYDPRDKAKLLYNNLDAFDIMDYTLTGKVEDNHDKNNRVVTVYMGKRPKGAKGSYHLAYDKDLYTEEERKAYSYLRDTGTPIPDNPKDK

[7] = test system: Streptococcus; assay: GAS UMAA2166 growth inhibition – luminescence, BacTiterGlo, counter-screen for streptokinase expression inhibitor project, dose response (AID 1915); type: functional, organism-based;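 further: potency for reduction of bacterial viability or growth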
[8] = molecular target: T4, Zinc finger protein mex-5 (Caenorhabditis elegans, UniProt Q9XUB2); assay: potency of MEX-5 RNA-binding blockers – biochemical, C. elegans, fluorescence polarization, dose response (AID 1960)
T4 sequence (Q9XUB2 whole entry): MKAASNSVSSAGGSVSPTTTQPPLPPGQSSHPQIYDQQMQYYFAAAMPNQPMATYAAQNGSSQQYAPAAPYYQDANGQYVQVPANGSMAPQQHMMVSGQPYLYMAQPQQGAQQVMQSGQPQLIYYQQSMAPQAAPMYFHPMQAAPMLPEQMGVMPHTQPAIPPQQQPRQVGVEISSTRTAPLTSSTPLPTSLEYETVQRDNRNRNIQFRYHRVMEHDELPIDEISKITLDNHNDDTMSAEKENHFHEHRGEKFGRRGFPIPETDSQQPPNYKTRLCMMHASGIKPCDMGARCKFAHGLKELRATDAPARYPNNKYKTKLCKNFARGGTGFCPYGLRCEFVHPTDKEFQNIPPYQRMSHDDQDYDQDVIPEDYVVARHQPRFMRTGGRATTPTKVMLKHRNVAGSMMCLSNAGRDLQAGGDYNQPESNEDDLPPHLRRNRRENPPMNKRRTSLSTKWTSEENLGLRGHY

[9] = molecular target: T5, Cytochrome P450 1A2 (Homo sapiens, UniProt P05177);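 further: PubChem cytochrome P450 panel assay, CYP1A2 panel member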
T5 sequence (P05177 whole entry): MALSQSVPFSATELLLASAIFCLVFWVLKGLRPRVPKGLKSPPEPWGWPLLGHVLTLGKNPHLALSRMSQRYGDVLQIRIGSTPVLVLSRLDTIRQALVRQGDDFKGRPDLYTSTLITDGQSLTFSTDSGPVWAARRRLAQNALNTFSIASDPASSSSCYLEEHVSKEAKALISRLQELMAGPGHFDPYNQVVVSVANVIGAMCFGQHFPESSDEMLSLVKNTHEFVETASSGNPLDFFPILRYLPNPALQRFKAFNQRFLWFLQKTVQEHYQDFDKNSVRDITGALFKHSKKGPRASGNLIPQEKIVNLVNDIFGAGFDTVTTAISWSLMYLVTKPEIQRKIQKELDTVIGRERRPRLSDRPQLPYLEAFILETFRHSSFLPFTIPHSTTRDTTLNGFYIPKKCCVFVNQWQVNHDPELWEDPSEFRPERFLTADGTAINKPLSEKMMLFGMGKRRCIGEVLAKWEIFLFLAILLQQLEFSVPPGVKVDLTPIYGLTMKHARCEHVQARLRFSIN

[10] = molecular target: Cytochrome P450 2C19 (Homo sapiens, UniProt P33261); assay: Cytochrome panel assay with activity outcomes. Panel member name: p450-cyp2c19 Compounds with AC50 equal or less than 10 uM are considered active; type: functional; details: read-out: AC50
Cytochrome P450 2C19, sequence (P33261 whole entry): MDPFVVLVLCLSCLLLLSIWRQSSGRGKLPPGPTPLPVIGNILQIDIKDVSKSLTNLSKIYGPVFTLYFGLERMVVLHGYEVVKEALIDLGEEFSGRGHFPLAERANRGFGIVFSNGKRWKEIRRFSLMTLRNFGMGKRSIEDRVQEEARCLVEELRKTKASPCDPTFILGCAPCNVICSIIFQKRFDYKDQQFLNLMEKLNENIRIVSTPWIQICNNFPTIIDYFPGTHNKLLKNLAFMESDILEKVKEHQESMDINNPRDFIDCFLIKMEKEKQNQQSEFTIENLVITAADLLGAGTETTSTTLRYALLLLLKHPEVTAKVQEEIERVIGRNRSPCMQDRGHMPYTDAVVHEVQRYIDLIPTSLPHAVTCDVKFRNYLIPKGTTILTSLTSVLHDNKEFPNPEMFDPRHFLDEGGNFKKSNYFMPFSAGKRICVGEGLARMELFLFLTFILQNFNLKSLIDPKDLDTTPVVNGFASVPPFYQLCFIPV

Cytochrome P450 3A4, sequence (P08684 whole entry): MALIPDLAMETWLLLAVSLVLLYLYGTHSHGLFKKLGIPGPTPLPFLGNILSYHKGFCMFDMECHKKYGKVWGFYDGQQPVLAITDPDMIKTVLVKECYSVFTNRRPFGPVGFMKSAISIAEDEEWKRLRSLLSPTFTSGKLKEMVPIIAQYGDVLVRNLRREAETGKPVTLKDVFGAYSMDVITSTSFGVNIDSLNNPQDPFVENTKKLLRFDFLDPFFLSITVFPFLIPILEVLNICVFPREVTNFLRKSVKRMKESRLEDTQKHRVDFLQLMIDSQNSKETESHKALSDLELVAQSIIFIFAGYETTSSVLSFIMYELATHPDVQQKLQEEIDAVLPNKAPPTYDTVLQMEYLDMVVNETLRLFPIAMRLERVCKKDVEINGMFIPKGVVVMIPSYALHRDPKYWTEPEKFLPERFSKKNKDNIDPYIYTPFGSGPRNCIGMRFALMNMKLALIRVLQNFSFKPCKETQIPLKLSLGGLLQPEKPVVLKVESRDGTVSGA
Cytochrome P450 2C9, sequence (P11712 whole entry): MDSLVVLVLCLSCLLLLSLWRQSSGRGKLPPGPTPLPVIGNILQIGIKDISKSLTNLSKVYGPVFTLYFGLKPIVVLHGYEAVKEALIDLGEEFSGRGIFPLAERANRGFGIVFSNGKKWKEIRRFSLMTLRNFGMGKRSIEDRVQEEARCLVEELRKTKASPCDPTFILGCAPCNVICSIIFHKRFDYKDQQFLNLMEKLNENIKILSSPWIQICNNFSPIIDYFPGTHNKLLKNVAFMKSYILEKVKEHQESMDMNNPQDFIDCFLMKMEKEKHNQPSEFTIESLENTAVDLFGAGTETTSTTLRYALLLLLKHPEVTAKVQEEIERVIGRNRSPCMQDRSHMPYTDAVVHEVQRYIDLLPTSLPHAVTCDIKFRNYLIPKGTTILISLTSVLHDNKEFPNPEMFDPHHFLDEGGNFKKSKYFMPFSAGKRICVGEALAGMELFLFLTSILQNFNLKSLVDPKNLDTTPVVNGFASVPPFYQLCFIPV

O=c1c(-c2ccc(F)c(F)c2)nc2cncnc2n1C1CC1
AC50 [1]: 12.6 µM (inconclusive)

Cc1ccc(C(c2nnnn2CC2CCCO2)N2CCN(C(=O)c3ccco3)CC2)cc1 (stereo not given)
AC50 [2]: 25.1 µM (inconclusive)

COC(=O)c1cc2c(ccn2-c2ccc(F)cc2)n1Cc1ccc(C#N)cc1
EC50 [3]: > 260 µM (inactive)

Cc1cc(C)c(S(=O)(=O)N2CCCC(C(=O)NCCC3=CCCCC3)C2)c(C)c1 (stereo not given)
EC50 [3]: > 260 µM (inactive)

CC(C)N1CCc2c(sc(NC(=O)c3ccc(S(=O)(=O)N(C)CC4CCCO4)cc3)c2C(N)=O)C1 (stereo not given)
EC50 [4]: 203 µM (active)
EC50 [5]: > 150 µM (not active)
EC50 [6]: > 150 µM (not active)
EC50 [7]: > 150 µM (not active)
EC50 [8]: > 300 µM (not active)

O=C(c1cc(C(F)(F)F)cc(C(F)(F)F)c1)N1CCC2(CC1)CN(Cc1ccncc1)C2
AC50 [1]: 15.8 µM (inconclusive)
AC50 [9]: 20 µM (inconclusive)

O=C(NNC(=O)c1ccccc1[N+](=O)[O-])c1csc(N2CCOCC2)n1
EC50 [4]: 84.9 µM (active)
EC50 [8]: 0.731 µM (active)

C=CCN1C(=O)NC(=O)/C(=C/C=C/Nc2ccccc2)C1=O
EC50 [4]: > 300 µM (not active)
EC50 [8]: > 300 µM (inconclusive)

CC(=C\c1ccco1)/C=C1/SC(=S)N(CC(=O)O)C1=O
EC50 [4]: > 300 µM (not active)
EC50 [8]: > 300 µM (not active)

COc1cc(C(=O)NC(c2ccccc2)c2ccccc2)cc(OC)c1C
EC50 [4]: > 300 µM (not active)
EC50 [8]: > 300 µM (not active)

COc1ccc(C2Nc3ccccc3C(=O)N2Cc2ccco2)cc1COc1ccc(F)cc1 (stereo not given)
EC50 [3]: > 260 µM (inactive)

Cn1cc(-c2nc3cnc(N4CCNCC4)nc3n(-c3ccccc3)c2=O)c2ccccc21
AC50 [1]: 20 µM (inconclusive)

COc1ccc(N2CCN(Cc3nc4c(c(=O)n(C)c(=O)n4C)n3CC(C)=O)CC2)cc1
AC50 [2]: 28.2 µM (inconclusive)

COc1ccc(Nc2nnc(-c3ccc(N4CCOCC4)c([N+](=O)[O-])c3)c3ccccc23)cc1
AC50 [10]: 15.8 µM (inconclusive)
AC50 [1]: 7.94 µM (inconclusive)

N#CCc1c(C#N)c(N)nc(N2CCN(S(=O)(=O)c3ccccc3F)CC2)c1C#N
EC50 [3]: > 260 µM (inactive)

Cc1c(Nc2cc(N3CCCC(C)C3)c3nonc3c2[N+](=O)[O-])c(=O)n(-c2ccccc2)n1C (stereo not given)
AC50 [2]: 2.51 µM (inconclusive)

c1ccc(Nc2c(-c3ccco3)nc3ccccn23)cc1
EC50 [3]: 151 µM (active)

C[C@H]1O[C@@H](CC(=O)O)Cc2c(O)c3c(c(O)c21)C(=O)C=C(C1=CC(=O)c2c(O)c4c(c(O)c2C1=O)C[C@H](CC(=O)O)O[C@@H]4C)C3=O
AC50 [2]: 7.94 µM (inconclusive)

O=C(O)CN1C(=O)/C(=C/c2ccccc2Br)Oc2ccccc21
EC50 [3]: > 260 µM (inactive)

COc1ccc(CCN2C(=O)NC(=O)/C(=C\Nc3ccc(NC(C)=O)cc3)C2=O)cc1OC
EC50 [4]: > 300 µM (not active)
EC50 [8]: > 300 µM (not active)

C[C@H]1COC(=O)[C@H](Cc2ccccc2)NC(=O)[C@@H](C)COC(=O)[C@H](Cc2ccccc2)NC1=O
AC50 [1]: 3.98 µM (inconclusive)

COc1ccc(S(=O)(=O)Nc2ccccc2C(F)(F)F)cc1
EC50 [3]: > 260 µM (inactive)

COC(=O)C1=C(C)N(c2ccc(Cl)cc2)/C(=C/c2cccs2)C1=O
EC50 [4]: > 300 µM (not active)
EC50 [8]: > 300 µM (not active)

CCOC(=O)C1CCN(C(=O)c2ccc3c(Cl)c4c(nc3c2)CCCC4)CC1
EC50 [3]: 15.8 µM (active)

O=C(Nc1cccn2ncnc12)C(F)(F)F
EC50 [3]: > 260 µM (inactive)

CN1CC[C@@]2(CCCN(C(=O)c3ccncc3)C2)C1
AC50 [1]: 31.6 µM (inconclusive)

CC1(C)Oc2cc(N)c([N+](=O)[O-])cc2O1
AC50 [2]: 35.5 µM (inconclusive)

O=C(Cc1ccccc1)Nc1ccc(N2CCOCC2)cc1N1CCOCC1
EC50 [4]: > 300 µM (not active)
EC50 [8]: > 300 µM (not active)

CCN(CC)CCN1C(=O)C(O)=C(C(=O)c2cc3cccc(OC)c3o2)C1c1ccc(F)cc1 (stereo not given)
EC50 [4]: > 300 µM (not active)
EC50 [8]: > 300 µM (not active)

CCCCN1C(=O)NC(=O)/C(=C\NCCN2CCCCC2)C1=O
AC50 [1]: 20 µM (inconclusive)

Cc1ccc2c(c1)C1C=CCC1C(C(=O)NCCCN1CCOCC1)N2 (stereo not given)
EC50 [4]: > 300 µM (not active)
EC50 [8]: > 300 µM (not active)

Cc1nn(-c2ccccc2)c2sc(C(=O)N(Cc3ccco3)C(C)C(=O)NC(C)(C)C)cc12 (stereo not given)
EC50 [3]: > 260 µM (inactive)

COc1ccc2c(c1)c(C(=O)CN1CCCCC1)c(C)n2C
EC50 [3]: > 260 µM (inactive)

Cc1nc2ncnn2c(C)c1CCC(=O)NCc1ccccc1
AC50 [1]: 17.8 µM (inconclusive)

CN(C)c1ccc(CNC(=O)c2ccc(CNc3c(N4CCCCC4)c(=O)c3=O)cc2)cc1
EC50 [3]: > 260 µM (inactive)

Cc1cc(/C=N/n2cnnc2)c(C)n1-c1cccc(C(=O)O)c1
EC50 [4]: > 300 µM (not active)
EC50 [8]: > 300 µM (not active)

O=C(c1[nH]o[n+](=O)c1C(=O)c1csc2ccccc12)c1csc2ccccc12
AC50 [1]: 3.16 µM (inconclusive)

O=C(O)c1cc2cc(Cc3cccnc3)ccc2o1
AC50 [1]: 25.1 µM (inconclusive)

Oc1ccc([C@@H]2CNCc3sccc32)cc1O
AC50 [1]: 15.8 µM (inconclusive)
